≈ marks a conversion by molar mass, not a printed value. Read-outs that look alike come from different tables or passages of the source. Non-standard residues stand in square brackets, D forms with d. Residues, ends and D or L forms follow the SMILES beside them. Aoc = NCCCCCCCC(=O)O; βAla = NCCC(=O)O
Assays:
[1] = test system: C. glabrata; conditions: 24 h
[2] = in vitro; conditions: human, EC50 cytotoxicity in HepG2, intracellular ATP assay
[3] = test system: C. auris; conditions: 24 h
[4] = test system: C. krusei; conditions: 24 h
[5] = in vitro; conditions: human, human serum, full strength
[6] = test system: Rhizopus arrhizus; conditions: 24 h
[7] = test system: C. parapsilosis; conditions: 24 h
[8] = test system: Scedosporium spp.; conditions: 72 h
[9] = test system: Coccidioides species; conditions: 48-72 hrs, >50% inhibition
[10] = test system: C. gattii; conditions: 72 h
[11] = test system: C. tropicalis; conditions: 24 h
[12] = Acute toxicity in CD-1 mice; conditions: both sexes, mouse, in vivo
Method: Acute toxicity and subacute toxicity of ACPs were tested in CD-1 mice. In the acute toxicity study, groups of CD-1 male or female mice were administered single intravenous or intraperitoneal escalating doses (n=2-3 per dose) of the peptides dissolved in normal saline for injection or in phosphate buffered saline. The intravenous dose was administered via tail vein with a slow push over 15-20 seconds. Doses were escalated based on tolerability.

[13] = test system: C. dubliniensis; conditions: 24 h
[14] = test system: C. albicans; conditions: 24 h
[15] = test system: Lomentospora prolificans
[16] = test system: Paecilomyces variotii; conditions: 48 h
[17] = test system: Fusarium spp.; conditions: 48 h
[18] = test system: C. neoformans; conditions: 72 h
[19] = test system: Candida spp.
[20] = test system: Staphylococcus aureus ATCC 29213; assay type: cell-based
[21] = test system: Pseudomonas aeruginosa ATCC 27853; assay type: cell-based
[22] = test system: Escherichia coli ATCC 25922; assay type: cell-based
[23] = Subacute toxicity in CD-1 mice; assay type: in vivo; conditions: daily IP for 7 days
Method: In the subacute toxicity study, groups of CD-1 male or female mice were administered seven consecutive daily intraperitoneal doses (n=3 per dose) of the peptides (SEQ ID NO: 7, SEQ ID NO: 29, SEQ ID NO: 53) dissolved in normal saline for injection. Each peptide was evaluated at 2 to 3 dose levels ranging from 2.5 to 7.5 mg/kg/day. Mice were weighed at least once daily and observed at least twice daily for any abnormal findings and determination of overall health. At 24 hrs after the last dose, mice were humanely euthanized, with blood collected through cardiac puncture into K2EDTA microtainers to assess hematological parameters. All three peptides were tolerated at the highest dose evaluated (7.5 mg/kg/day) for 7 days.

[24] = mice

Row | Compound | MIC C. glabrata [1] [µg/mL] | EC50 [2] [µg/mL] | MIC C. auris [3] [µg/mL] | MIC C. krusei [4] [µg/mL] | remaining at 2 h, 5 μM [5] [%] | MIC C. parapsilosis [7] [µg/mL] | MIC Range Scedosporium spp. [8] [µg/mL] | MIC C. gattii [10] [µg/mL] | MIC C. tropicalis [11] [µg/mL] | MIC C. dubliniensis [13] [µg/mL] | MIC C. albicans [14] [µg/mL] | MIC Range Lomentospora prolificans [15] [µg/mL] | MIC Range Fusarium spp. [17] [µg/mL] | MIC C. neoformans [18] [µg/mL] | MIC50 Candida species [19] [µg/mL] | MIC90 Candida species [19] [µg/mL] | MIC Staphylococcus aureus [20] [µg/mL] | MIC Pseudomonas aeruginosa [21] [µg/mL] | MIC Escherichia coli [22] [µg/mL] | other results
1 | N=C(N)NCCC[C@@H](N)C(=O)N[C@@H](CCCNC(=N)N)C(=O)N[C@H](CCCNC(=N)N)C(=O)NCCC(=O)N[C@H](CCCNC(=N)N)C(=O)N[C@@H](CCCNC(=N)N)C(=O)N[C@H](CCCNC(=N)N)C(=O)NCCC(=O)N[C@H](CCCNC(=N)N)C(=O)N[C@@H](CCCNC(=N)N)C(=O)N[C@H](CCCNC(=N)N)C(=O)N[C@@H](CCCNC(=N)N)C(=O)NCCC(=O)N[C@H](CCCNC(=N)N)C(=O)N[C@@H](CCCNC(=N)N)C(=O)N[C@H](CCCNC(=N)N)C(=O)N[C@@H](CCCNC(=N)N)C(=O)O [SEQ ID NO: 8, rRr-(Apr)-rRr-(Apr)-rRrR-(Apr)-rRrR] (H-[dR]R[dR][βAla][dR]R[dR][βAla][dR]R[dR]R[βAla][dR]R[dR]R-OH) | 0.5 (≈ 0.207 µM) | > 300 | 4 (≈ 1.65 µM) | 0.5 (≈ 0.207 µM) | ~100 | 0.25 (≈ 0.103 µM) | ≤0.12 | 0.25 (≈ 0.103 µM) | 0.25 (≈ 0.103 µM) | 0.25 (≈ 0.103 µM) | 0.5 (≈ 0.207 µM) | ≤0.12 | 0.25 to 0.5 | 0.5 (≈ 0.207 µM) |  |  |  |  |  | MIC Range Rhizopus arrhizus [6]: 2 to 32 µg/mL; MIC Range Coccidioides species ([9]; N = 3 strains): 0.25 to 0.5 µg/mL; MTD ([12]; single IP dose, read-out: Tolerated single intraperitoneal dose): 10 to 15 mg/kg; MTD ([12]; single IV dose via tail vein, read-out: Tolerated single intravenous dose): 5 to 7.5 mg/kg; MIC Range Paecilomyces variotii [16]: 0.25 µg/mL (≈ 0.103 µM)
2 | N=C(N)NCCC[C@H](NC(=O)[C@H](CCCNC(=N)N)NC(=O)[C@H](CCCNC(=N)N)NC(=O)[C@H](CCCNC(=N)N)NC(=O)CCNC(=O)[C@H](CCCNC(=N)N)NC(=O)[C@H](CCCNC(=N)N)NC(=O)[C@H](CCCNC(=N)N)NC(=O)[C@H](CCCNC(=N)N)NC(=O)CCNC(=O)[C@H](CCCNC(=N)N)NC(=O)[C@H](CCCNC(=N)N)NC(=O)[C@H](CCCNC(=N)N)NC(=O)CCNC(=O)[C@H](CCCNC(=N)N)NC(=O)[C@H](CCCNC(=N)N)NC(=O)[C@@H](N)CCCNC(=N)N)C(N)=O [SEQ ID NO: 13, RRR-(Apr)-RRR-(Apr)-RRRR-(Apr)-RRRR-NH2] (H-RRR[βAla]RRR[βAla]RRRR[βAla]RRRR-NH2) | 32 (≈ 13.2 µM) | > 300 | 4 (≈ 1.66 µM) | 2 (≈ 0.828 µM) | ~40 | 0.25 (≈ 0.103 µM) | 0.25 (≈ 0.103 µM) | 0.5 (≈ 0.207 µM) | 0.5 (≈ 0.207 µM) | 2 (≈ 0.828 µM) | 8 (≈ 3.31 µM) |  | 0.5 to 2 | 1 (≈ 0.414 µM) | 4 (≈ 1.66 µM) | 16 (≈ 6.62 µM) |  |  |  | 
3 | N=C(N)NCCC[C@H](NC(=O)CCNC(=O)[C@H](CCCNC(=N)N)NC(=O)[C@@H](CCCNC(=N)N)NC(=O)[C@@H](N)CCCNC(=N)N)C(=O)N[C@H](CCCNC(=N)N)C(=O)N[C@@H](CCCNC(=N)N)C(=O)NCCC(=O)N[C@@H](CCCNC(=N)N)C(=O)N[C@H](CCCNC(=N)N)C(=O)N[C@@H](CCCNC(=N)N)C(=O)N[C@H](CCCNC(=N)N)C(=O)NCCC(=O)N[C@@H](CCCNC(=N)N)C(=O)N[C@H](CCCNC(=N)N)C(=O)N[C@@H](CCCNC(=N)N)C(=O)N[C@H](CCCNC(=N)N)C(N)=O [SEQ ID NO: 15, RrR-(Apr)-RrR-(Apr)-RrRr-(Apr)-RrRr-NH2] (H-R[dR]R[βAla]R[dR]R[βAla]R[dR]R[dR][βAla]R[dR]R[dR]-NH2) | 0.5 (≈ 0.207 µM) | > 300 | 0.5 (≈ 0.207 µM) | 0.5 (≈ 0.207 µM) | ~100 | 0.25 (≈ 0.103 µM) | 0.25 to 0.5 | 0.25 (≈ 0.103 µM) | 0.25 (≈ 0.103 µM) | 0.5 (≈ 0.207 µM) | 1 (≈ 0.414 µM) |  | 0.12 to 0.25 | 0.5 (≈ 0.207 µM) | 0.5 (≈ 0.207 µM) | 1 (≈ 0.414 µM) | 16 (≈ 6.62 µM) | 64 (≈ 26.5 µM) | 32 (≈ 13.2 µM) | 
4 | N=C(N)NCCC[C@@H](N)C(=O)N[C@@H](CCCNC(=N)N)C(=O)N[C@H](CCCNC(=N)N)C(=O)NCCCCCCCC(=O)N[C@H](CCCNC(=N)N)C(=O)N[C@@H](CCCNC(=N)N)C(=O)N[C@H](CCCNC(=N)N)C(=O)NCCCCCCCC(=O)N[C@H](CCCNC(=N)N)C(=O)N[C@@H](CCCNC(=N)N)C(=O)N[C@H](CCCNC(=N)N)C(=O)N[C@@H](CCCNC(=N)N)C(=O)NCCCCCCCC(=O)N[C@H](CCCNC(=N)N)C(=O)N[C@@H](CCCNC(=N)N)C(=O)N[C@H](CCCNC(=N)N)C(=O)N[C@@H](CCCNC(=N)N)C(N)=O [SEQ ID NO: 29, rRr-(Aoa)-rRr-(Aoa)-rRrR-(Aoa)-rRrR-NH2] (H-[dR]R[dR][Aoc][dR]R[dR][Aoc][dR]R[dR]R[Aoc][dR]R[dR]R-NH2) | 0.5 (≈ 0.19 µM) | > 300 | 0.5 (≈ 0.19 µM) | 0.5 (≈ 0.19 µM) | ~100 | 0.5 (≈ 0.19 µM) | 0.5 (≈ 0.19 µM) | 0.5 (≈ 0.19 µM) | 0.5 (≈ 0.19 µM) | 0.5 (≈ 0.19 µM) | 1 (≈ 0.381 µM) | 0.5 (≈ 0.19 µM) | 0.5 (≈ 0.19 µM) | 0.5 (≈ 0.19 µM) |  |  | 16 (≈ 6.09 µM) | 32 (≈ 12.2 µM) | 16 (≈ 6.09 µM) | Tolerated dose (highest dose evaluated) [23]: 7.5 mg/kg/day; Clinical or hematological adverse effects ([23]; up to 7.5 mg/kg/day): No significant clinical or hematological adverse effects were observed; Kidney to Plasma Concentration Ratio Day 7 ([24]; 6 hrs post dose of 7.5 mg/kg IP once daily, Day 7, mean ± SD, n = 3): 361 ± 322; Kidney to Plasma Concentration Ratio Day 1 ([24]; 6 hrs post dose of 7.5 mg/kg IP, Day 1, mean ± SD, n = 3): 236 ± 233; Day 1 AUC ratio, kidney to plasma ([24]; IP 7.5 mg/kg, Day 1): 158; MIC Range Coccidioides species ([9]; N = 10 strains): 0.06 to 0.25 µg/mL

— patent US20240360177A1, “PEPTIDES WITH ANTIMICROBIAL ACTIVITIES” (priority 2021, published 2024)
